From patent publication US11912710B2 (UPPTHERA, INC., priority 2021, dated 2024) come the findings set out here.

pIC50: −log10 of the molar value. Like-named read-outs stand apart in the source and are kept apart here.

The term pIC50 denotes the negative decadic logarithm of the IC50, by convention in mol/L.

Common to all, as to format: cell-based
One data set relates to MRC-5 cell line. Nature of the data set: Cell viability assay (cytotoxicity) for MRC-5 cell line. The conditions noted are these: for pIC50: Homo sapiens, MRC5, 120 h. As to the method: 4. Cell Viability Assay for MRC-5 Cell Line
(1) Culture of MRC-5 Cell Line
Passage of cultured cells was maintained within P15.
(2) Treatment of Compounds of the Present Invention
Then, it was cultured in 37° C.
(3) Cytotoxicity Experiment
CO2 incubator for 4 hours.
Cell Viability Assay for MRC-5 cell line

For a further data set, the target named is T1, PLK1 (Homo sapiens, UniProt P53350).
T1 construct: endogenous in cells; host or cells: HeLa LgBit (Plk1-HiBit KI): HeLa cells stably expressing LgBit, with HiBit knocked into the endogenous Plk1 locus by CRISPR/Cas9
T1 sequence (P53350 whole entry): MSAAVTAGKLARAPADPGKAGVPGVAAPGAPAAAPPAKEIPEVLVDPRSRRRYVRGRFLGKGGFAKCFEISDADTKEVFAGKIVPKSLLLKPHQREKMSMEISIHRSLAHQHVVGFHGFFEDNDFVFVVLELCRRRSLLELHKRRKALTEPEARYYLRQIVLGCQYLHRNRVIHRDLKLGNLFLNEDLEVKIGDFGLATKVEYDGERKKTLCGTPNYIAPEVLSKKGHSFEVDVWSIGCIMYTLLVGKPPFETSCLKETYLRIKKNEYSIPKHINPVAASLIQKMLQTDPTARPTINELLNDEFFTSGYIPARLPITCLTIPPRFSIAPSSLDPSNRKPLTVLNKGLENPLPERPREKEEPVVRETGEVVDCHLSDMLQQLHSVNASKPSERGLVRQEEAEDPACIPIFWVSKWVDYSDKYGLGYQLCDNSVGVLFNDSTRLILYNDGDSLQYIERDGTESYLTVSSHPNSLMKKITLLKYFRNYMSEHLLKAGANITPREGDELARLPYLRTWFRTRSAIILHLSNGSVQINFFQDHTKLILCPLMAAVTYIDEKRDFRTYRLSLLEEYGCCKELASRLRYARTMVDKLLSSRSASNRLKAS
Description: Luciferase assay for PLK1 in HeLa LgBit (Plk1-HiBit KI) cell line. The note with it: 300 nM compound, luminescence after 9 hours, read-out: Activity: ratio of the luminescense value of compound treatment group to DMSO treatment group. On the procedure:
2. Luciferase Assay for PLK1
(1) Preparation and Culture of HeLa LgBit (Plk1-HiBit KI) Cell Line
A HeLa cell line in which the LgBit vector was transfected and expressed stably was prepared. Then, after constructing gRNA and donor to express the HiBit amino acid sequence behind the C-terminal of the Plk1 gene, which was inherent in the cell, it was inserted into the cell together with a vector capable of expressing CRISPR/Cas9. Only the cells in which the insertion was completed and knock-in had progressed were selected, sub-cultured and used.
(2) Treatment of Compounds of the Present Invention and Method of Luciferase Assay
In the case of HeLa LgBit (Plk1-HiBit KI), the compounds were treated after being released after thymidine block, and the process was as follows. Thymidine (Sigma-Aldrich Cat. No. T9250-5G) was completely dissolved in DW and used in the experiment. For thymidine block, the products were treated with 2 mM of thymidine and then incubated for 24 hours. For release and chemical treatment, the medium was suctioned and washed with 1×PBS. TrypLE™ was added and incubated in 37° C. CO2 incubator for 5 min. Cells neutralized by adding complete media were counted through a counter. For each well of a 96-well culture plate (SPL), 3.3×10^4 cells and a total medium volume of 150 μL were seeded and incubated in a CO2 incubator.
Each cell line was incubated in a CO2 incubator for 18 hours, and Endurazine was added to each well to make up 4% of the total volume. After adding the compound of the present invention in a 96-well white plate (SPL) to a concentration of 300 nM, the wavelength of the plate reader (BMG Labtech, CLARIOstar Plus) was set to […], and then the luminescence was tracked in real time.
In Table 2, Activity represents the ratio of the luminescense value of each Exemplary Compound treatment group to DMSO treatment group (+++: <0.3, ++<0.6, +<0.7).

The test system of the next data set is NCI-H526 cell line. Description: Cell viability assay for H526 cell line. The note with it: Homo sapiens, NCI-H526, 120 h; H526 cells, 5 days, EZ-Cytox, 3000 nM to 0.46 nM. On the procedure: 3. Cell Viability Assay for H526 Cell Line
(1) Culture of NCI-H526 Cell Line
(2) Treatment of Compounds of the Present Invention and Method of Cell Viability Assay
After treating the compound to each well to make the total volume of 200 μL, it was cultured in a CO2 incubator (Thermo Fisher Science, Cat. No. 4111) for 5 days.
The absorbance of the completely cultured sample was measured by setting the wavelength of a plate reader (BMG Labtech, CLARIOstar Plus) to […], and was measured after shaking for 3 minutes in a plate reader before measurement.
In Table 3, Activity represents IC50 value of each Exemplary Compound treatment group to H526 cell line (A: <30 nM, B: <50 nM, C: <100 nM, D: <200 nM, E: <400 nM).

Setting [1] is: read-out: Activity: IC50 value to MRC-5 cell line (Comparative Compounds).
Where [2] appears, read: MRC-5 normal cell line, 5 days, EZ-Cytox, 10000 nM to 1.52 nM, read-out: Activity: IC50 value to MRC-5 cell line (Exemplary Compounds).

Turning to `CC[C@@H]1C(=O)N(C)c2cnc(Nc3ccc(C(=O)NCCOCCOCCNc4cccc5c4C(=O)N(C4CCC(=O)NC4=O)C5=O)cc3OC)nc2N1C1CCCC1` (stereo partly shown) [Comparative Compound 1, reference compound], in the data set with MRC-5 cell line (MRC-5 normal cell line, 5 days, EZ-Cytox, 10000 nM to 1.52 nM, read-out: Activity: IC50 value to MRC-5 cell line (Comparative Compounds)), the negative logarithm of the IC50 (pIC50) is 6.97. Further, the “cytotoxicity in normal cell line” value in the data set on MRC-5 cell line (MRC-5 normal cell line, statement in words) is “high level of cytotoxicity”.

Regarding `CC[C@@H]1C(=O)N(C)c2cnc(Nc3ccc(C(=O)NC4CCN(C)CC4)cc3OC)nc2N1C1CCCC1` [Comparative Compound 2, BI2536, reference compound], in the data set with MRC-5 cell line (setting [1]), the pIC50 was 5.51.

`CC[C@@H]1C(=O)N(C)c2cnc(Nc3ccc(C(=O)N[C@H]4CC[C@H](N5CCN(CC6CC6)CC5)CC4)cc3OC)nc2N1C(C)C` [Comparative Compound 3, Volasertib, reference compound]: in the data set on MRC-5 cell line (setting [1]), the negative logarithm of the IC50 (pIC50) was 5.53.

With `COc1cc(C(=O)NC2CCN(C)CC2)c(F)cc1Nc1ncc2c(n1)N(C1CCCC1)CC(F)(F)C(=O)N2C` [Comparative Compound 4, TAK960, reference compound], the negative-log IC50 (pIC50) in the data set on MRC-5 cell line (setting [1]) is 5.04.

As for `COc1cc(C(=O)NC2CCN(CCOCCOCCOCCOCCNc3ccc(C4CCC(=O)NC4=O)cc3)CC2)c(F)cc1Nc1ncc2c(n1)N(C1CCCC1)CC(F)(F)C(=O)N2C` (stereo not shown) [Compound 1, 4-((9-cyclopentyl-7,7-difluoro-5-methyl-6-oxo-6,7,8,9-tetrahydro-5H-pyrimido[4,5-b][1,4]diazepin-2-yl)amino)-N-(1-(14-((4-(2,6-dioxopiperidin-3-yl)phenyl)amino)-3,6,9,12-tetraoxatetradecyl)piperidin-4-yl)-2-fluoro-5-methoxybenzamide], the remaining activity at 0.3 µM on PLK1 was below 60%. For the same compound, the negative logarithm of the IC50 (pIC50) with NCI-H526 cell line is above 7.30; in the data set on MRC-5 cell line (setting [2]) it was 4.59.

For the compound `COc1cc(C(=O)NC2CCN(C(=O)CCCOc3cccc(C4CCC(=O)NC4=O)c3)CC2)c(F)cc1Nc1ncc2c(n1)N(C1CCCC1)CC(F)(F)C(=O)N2C` (stereo not shown) [Compound 2, 4-((9-cyclopentyl-7,7-difluoro-5-methyl-6-oxo-6,7,8,9-tetrahydro-5H-pyrimido[4,5-b][1,4]diazepin-2-yl)amino)-N-(1-(4-(3-(2,6-dioxopiperidin-3-yl)phenoxy)butanoyl)piperidin-4-yl)-2-fluoro-5-methoxybenzamide], on PLK1, the remaining activity at 0.3 µM was below 60%. Further, the negative logarithm of the IC50 (pIC50) with NCI-H526 cell line was above 7.30; in the data set on MRC-5 cell line (setting [2]), below 5.00.

On to `COc1cc(OCC2CC3(CCN(CC4CCN(c5ccc(C6CCC(=O)NC6=O)cc5F)CC4)CC3)C2)ccc1Nc1ncc2c(n1)N(C1CCCC1)CC(F)(F)C(=O)N2C` (stereo not shown) [Compound 17, 3-(4-(4-((2-((4-((9-cyclopentyl-7,7-difluoro-5-methyl-6-oxo-6,7,8,9-tetrahydro-5H-pyrimido[4,5-b][1,4]diazepin-2-yl)amino)-3-methoxyphenoxy)methyl)-7-azaspiro[3.5]nonan-7-yl)methyl)piperidin-1-yl)-3-fluorophenyl)piperidine-2,6-dione], for which the remaining activity at 0.3 µM on PLK1 is below 30%. Further, the pIC50 in the data set with NCI-H526 cell line is above 6.70.

Consider `COc1cc(C(=O)NN2CCC(N3CC4(CCN(c5ccc(C6CCC(=O)NC6=O)cc5F)CC4)C3)CC2)ccc1Nc1ncc2c(n1)N(C1CCCC1)CC(F)(F)C(=O)N2C` (stereo not shown) [Compound 18, 4-((9-cyclopentyl-7,7-difluoro-5-methyl-6-oxo-6,7,8,9-tetrahydro-5H-pyrimido[4,5-b][1,4]diazepin-2-yl)amino)-N-(4-(7-(4-(2,6-dioxopiperidin-3-yl)-2-fluorophenyl)-2,7-diazaspiro[3.5]nonan-2-yl)piperidin-1-yl)-3-methoxybenzamide], for which the remaining activity at 0.3 µM at PLK1 was below 60%. This compound also showed a pIC50 in the data set on NCI-H526 cell line above 7.52.

For the compound `COc1cc(C(=O)NC2CC23CCN(CC2CCN(c4ccc(C5CCC(=O)NC5=O)cc4F)CC2)CC3)ccc1Nc1ncc2c(n1)N(C1CCCC1)CC(F)(F)C(=O)N2C` (stereo not shown) [Compound 23, 4-((9-cyclopentyl-7,7-difluoro-5-methyl-6-oxo-6,7,8,9-tetrahydro-5H-pyrimido[4,5-b][1,4]diazepin-2-yl)amino)-N-(6-((1-(4-(2,6-dioxopiperidin-3-yl)-2-fluorophenyl)piperidin-4-yl)methyl)-6-azaspiro[2.5]octan-1-yl)-3-methoxybenzamide], on PLK1, the remaining activity at 0.3 µM is below 30%. For the same compound, the pIC50 with NCI-H526 cell line is above 7.52.

For the compound `COc1cc(C(=O)NC2CC3(CCN(CC4CCN(c5cccc(N6CCC(=O)NC6=O)c5)CC4)CC3)C2)ccc1Nc1ncc2c(n1)N(C1CCCC1)CC(F)(F)C(=O)N2C` [Compound 34, 4-((9-cyclopentyl-7,7-difluoro-5-methyl-6-oxo-6,7,8,9-tetrahydro-5H-pyrimido[4,5-b][1,4]diazepin-2-yl)amino)-N-(7-((1-(3-(2,4-dioxotetrahydropyrimidin-1(2H)-yl)phenyl)piperidin-4-yl)methyl)-7-azaspiro[3.5]nonan-2-yl)-3-methoxybenzamide], the remaining activity at 0.3 µM at PLK1 was below 60%. The negative-log IC50 (pIC50) with NCI-H526 cell line was above 7.52.

As for `COc1cc(C(=O)NC2CC3(CCN(CC4CCN(c5cccc(C6CCC(=O)NC6=O)c5)CC4)CC3)C2)ccc1Nc1ncc2c(n1)N(C1CCCC1)CC(F)(F)C(=O)N2C` (stereo not shown) [Compound 41, 4-((9-cyclopentyl-7,7-difluoro-5-methyl-6-oxo-6,7,8,9-tetrahydro-5H-pyrimido[4,5-b][1,4]diazepin-2-yl)amino)-N-(7-((1-(3-(2,6-dioxopiperidin-3-yl)phenyl)piperidin-4-yl)methyl)-7-azaspiro[3.5]nonan-2-yl)-3-methoxybenzamide], the remaining activity at 0.3 µM on PLK1 is below 60%. For the same compound, the negative logarithm of the IC50 (pIC50) with NCI-H526 cell line is above 7.52.

As for `COc1cc(C(=O)NC2CCN(C3CN(c4ccc(C5CCC(=O)NC5=O)cc4F)C3)CC2)ccc1Nc1ncc2c(n1)N(C1CCCC1)CC(F)(F)C(=O)N2C` (stereo not shown) [Compound 42, 4-((9-cyclopentyl-7,7-difluoro-5-methyl-6-oxo-6,7,8,9-tetrahydro-5H-pyrimido[4,5-b][1,4]diazepin-2-yl)amino)-N-(1-(1-(4-(2,6-dioxopiperidin-3-yl)-2-fluorophenyl)azetidin-3-yl)piperidin-4-yl)-3-methoxybenzamide], the remaining activity at 0.3 µM at PLK1 is below 30%. For the same compound, the negative-log IC50 (pIC50) in the data set on NCI-H526 cell line was above 7.52.

`COc1cc(C(=O)NN2CCC(C3CN(c4ccc(C5CCC(=O)NC5=O)cc4F)C3)CC2)ccc1Nc1ncc2c(n1)N(C1CCCC1)CC(F)(F)C(=O)N2C` (stereo not shown) [Compound 43, 4-((9-cyclopentyl-7,7-difluoro-5-methyl-6-oxo-6,7,8,9-tetrahydro-5H-pyrimido[4,5-b][1,4]diazepin-2-yl)amino)-N-(4-(1-(4-(2,6-dioxopiperidin-3-yl)-2-fluorophenyl)azetidin-3-yl)piperidin-1-yl)-3-methoxybenzamide]: the remaining activity at 0.3 µM at PLK1 is below 60%. The same compound gave a pIC50 with NCI-H526 cell line above 7.30.

In the case of `COc1cc(C(=O)NN2CC3(CCN(CC4CCN(c5ccc(C6CCC(=O)NC6=O)cc5F)CC4)CC3)C2)ccc1Nc1ncc2c(n1)N(C1CCCC1)CC(F)(F)C(=O)N2C` (stereo not shown) [Compound 44], the remaining activity at 0.3 µM on PLK1 was below 60%. Also, the negative logarithm of the IC50 (pIC50) with NCI-H526 cell line is above 7.52.

With `COc1cc(C(=O)NC2CC3(CCN(C[C@@H]4CCN(c5ccc(C6CCC(=O)NC6=O)cc5F)C[C@@H]4F)CC3)C2)ccc1Nc1ncc2c(n1)N(C1CCCC1)CC(F)(F)C(=O)N2C` (stereo partly drawn) [Compound 46, −((9-cyclopentyl-7,7-difluoro-5-methyl-6-oxo-6,7,8,9-tetrahydro-5H-pyrimido[4,5-b][1,4]diazepin-2-yl)amino)-N-(7-(((3R,4S)-1-(4-(2,6-dioxopiperidin-3-yl)-2-fluorophenyl)-3-fluoropiperidin-4-yl)methyl)-7-azaspiro[3.5]nonan-2-yl)-3-methoxybenzamide], the remaining activity at 0.3 µM at PLK1 was below 30%.
